Reference: ChEMBL document CHEMBL5241054, “Effective anti-aromatase therapy to battle against estrogen-mediated breast cancer: Comparative SAR/QSAR assessment on steroidal aromatase inhibitors” (Eur J Med Chem, 2020)

The compounds below were run against T1, Aromatase (Homo sapiens, UniProt P11511).
T1 sequence (P11511 whole entry): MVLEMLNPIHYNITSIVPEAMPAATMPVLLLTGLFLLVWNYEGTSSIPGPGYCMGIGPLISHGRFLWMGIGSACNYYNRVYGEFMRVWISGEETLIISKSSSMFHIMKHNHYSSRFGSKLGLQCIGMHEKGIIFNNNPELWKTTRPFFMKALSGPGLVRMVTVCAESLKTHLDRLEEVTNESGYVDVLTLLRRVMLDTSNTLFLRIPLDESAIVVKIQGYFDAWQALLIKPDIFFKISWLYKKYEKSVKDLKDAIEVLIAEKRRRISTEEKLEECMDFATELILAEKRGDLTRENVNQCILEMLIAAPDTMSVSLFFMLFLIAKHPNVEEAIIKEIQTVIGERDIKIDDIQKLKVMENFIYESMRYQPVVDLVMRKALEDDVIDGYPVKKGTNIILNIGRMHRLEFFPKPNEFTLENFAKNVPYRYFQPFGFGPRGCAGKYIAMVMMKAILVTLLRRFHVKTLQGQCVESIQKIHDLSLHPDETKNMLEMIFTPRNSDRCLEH
Compound C[C@]12CC[C@H](OC(=O)C(F)(F)F)C[C@@H]1CC[C@@H]1[C@@H]2CC[C@]2(C)C3=NN(c4ccccc4)[C@H](c4ccccc4)[C@H]3C[C@@H]12 has an IC50 of 5.68 µM. C[C@]12C=CC(=O)C=C1C[C@@H](CCc1ccc(N)cc1)[C@@H]1[C@@H]2CC[C@]2(C)C(=O)CC[C@@H]12 showed an IC50 of 0.0187 µM. Work on CC(=O)O[C@H]1C[C@@H]2[C@H](CC[C@]3(C)C(=O)CC[C@@H]23)[C@@]2(C)CCC(=O)C=C12 yielded an IC50 of 4 µM. C[C@]12C=CC(=O)C=C1[C@H](OCc1ccccc1)C[C@@H]1[C@@H]2CC[C@]2(C)C(=O)CC[C@@H]12 was tested, and the IC50 was 0.15 µM. In the case of COc1ccc([C@H]2NN=C3[C@@H]2C[C@H]2[C@@H]4CC[C@H]5CC(=O)CC[C@]5(C)[C@H]4CC[C@]32C)cc1, the IC50 is reported as 4.88 µM. Work on COc1ccc([C@@H]2[C@H]3C[C@H]4[C@@H]5CC[C@H]6C[C@@H](OC(=O)C(F)(F)F)CC[C@]6(C)[C@H]5CC[C@]4(C)C3=NN2c2ccccc2)cc1 yielded an IC50 of 5.45 µM. Work on CC(=O)O[C@@H]1C[C@@H]2[C@H](CC[C@]3(C)C(=O)CC[C@@H]23)[C@@]2(C)CCC(=O)C=C12 yielded an IC50 of 20 µM. C[C@]12CCC(=O)C[C@@H]1C(=O)C[C@@H]1[C@@H]2CC[C@]2(C)C(=O)CC[C@@H]12 was tested, and the IC50 was 4 µM. CCCCC(=O)O[C@H]1C[C@@H]2[C@H](CC[C@]3(C)C(=O)CC[C@@H]23)[C@@]2(C)CCC(=O)C=C12 gave an IC50 of 0.14 µM. For CCO[C@H]1C[C@@H]2[C@H](CC[C@]3(C)C(=O)CC[C@@H]23)[C@@]2(C)C=CC(=O)C=C12, the IC50 was 1.5 µM. With CC(=O)N1N=C2[C@H](C[C@H]3[C@@H]4CCC5=CC(=O)C=C[C@]5(C)[C@H]4CC[C@]23C)[C@H]1c1ccccc1 the IC50 was 2.88 µM. With CC(=O)O[C@H]1C[C@@H]2[C@H](CC[C@]3(C)C(=O)CC[C@@H]23)[C@@]2(C)C=CC(=O)C=C12 the IC50 was 1.1 µM. In the case of C[C@]12CC[C@H](O)C[C@@H]1CC[C@@H]1[C@@H]2CC[C@]2(C)C3=NN[C@H](c4ccccc4)[C@H]3C[C@@H]12, the IC50 is reported as 6.9 µM. C[C@]12C=CC(=O)C=C1[C@@H](Oc1ccccc1)C[C@@H]1[C@@H]2CC[C@]2(C)C(=O)CC[C@@H]12 showed an IC50 of 0.53 µM. With C[C@]12C=CC(=O)C=C1C[C@@H](CCc1ccc([N+](=O)[O-])cc1)[C@@H]1[C@@H]2CC[C@]2(C)C(=O)CC[C@@H]12 the IC50 was 0.0149 µM. In the case of CCCO[C@@H]1C[C@@H]2[C@H](CC[C@]3(C)C(=O)CC[C@@H]23)[C@@]2(C)CCC(=O)C=C12, the IC50 is reported as 0.55 µM. C[C@]12C=CC(=O)C=C1C[C@H](c1ccc(N)cc1)[C@@H]1[C@@H]2CC[C@]2(C)C(=O)CC[C@@H]12 showed an IC50 of 0.00991 µM. For COc1ccc([C@H]2NN=C3[C@@H]2C[C@H]2[C@@H]4CCC5=CC(=O)C=C[C@]5(C)[C@H]4CC[C@]32C)cc1, the IC50 was 2.91 µM. Work on C[C@]12CC[C@H](OC(=O)C(F)(F)F)C[C@@H]1CC[C@@H]1[C@@H]2CC[C@]2(C)C(=O)/C(=C\c3ccccc3)C[C@@H]12 yielded an IC50 of 7.11 µM. Work on C[C@]12CCC(=O)C=C1[C@H](Oc1ccccc1)C[C@@H]1[C@@H]2CC[C@]2(C)C(=O)CC[C@@H]12 yielded an IC50 of 23 µM. COc1ccc([C@@H]2[C@H]3C[C@H]4[C@@H]5CC[C@H]6CC(=O)CC[C@]6(C)[C@H]5CC[C@]4(C)C3=NN2C)cc1 showed an IC50 of 4.56 µM. CN1N=C2[C@H](C[C@H]3[C@@H]4CC[C@H]5CC(=O)CC[C@]5(C)[C@H]4CC[C@]23C)[C@H]1c1ccccc1 showed an IC50 of 4.78 µM. Compound C[C@]12C=CC(=O)C=C1[C@H](Oc1ccccc1)C[C@@H]1[C@@H]2CC[C@]2(C)C(=O)CC[C@@H]12 has an IC50 of 16 µM. With C[C@]12CCC(=O)C(S)=C1CC[C@@H]1C2=CC[C@]2(C)C(=O)CC[C@@H]12 the IC50 was 3.8 µM. Compound C[C@]12CCC(=O)C=C1CC[C@@H]1[C@@H]2CC[C@]2(C)C(=O)C(Br)C[C@@H]12 (stereo not given in full) has an IC50 of 2.65 µM. Compound CCO[C@H]1C[C@@H]2[C@H](CC[C@]3(C)C(=O)CC[C@@H]23)[C@@]2(C)CCC(=O)C=C12 has an IC50 of 1.4 µM. Work on CCCCO[C@H]1C[C@@H]2[C@H](CC[C@]3(C)C(=O)CC[C@@H]23)[C@@]2(C)C=CC(=O)C=C12 yielded an IC50 of 0.661 µM. In the case of CO[C@H]1C[C@@H]2[C@H](CC[C@]3(C)C(=O)CC[C@@H]23)[C@@]2(C)C=CC(=O)C=C12, the IC50 is reported as 0.44 µM. For CCCCCCCC(=O)O[C@H]1C[C@@H]2[C@H](CC[C@]3(C)C(=O)CC[C@@H]23)[C@@]2(C)CCC(=O)C=C12, the IC50 was 0.15 µM. Compound C[C@]12CCC(=O)C(O)=C1CC[C@@H]1C2=CC[C@]2(C)C(=O)CC[C@@H]12 has an IC50 of 0.35 µM. With CO[C@H]1C[C@@H]2[C@H](CC[C@]3(C)C(=O)CC[C@@H]23)[C@@]2(C)CCC(=O)C=C12 the IC50 was 0.54 µM. C[C@]12CCC(=O)C[C@@H]1CC[C@@H]1[C@@H]2CC[C@]2(C)C3=NN[C@H](c4ccccc4)[C@H]3C[C@@H]12 showed an IC50 of 5.24 µM. Compound CCO[C@@H]1C[C@@H]2[C@H](CC[C@]3(C)C(=O)CC[C@@H]23)[C@@]2(C)CCC(=O)C=C12 has an IC50 of 0.5 µM. COc1ccc([C@H]2NN=C3[C@@H]2C[C@H]2[C@@H]4CC[C@H]5C[C@@H](O)CC[C@]5(C)[C@H]4CC[C@]32C)cc1 gave an IC50 of 6.82 µM. CC1(C)C[C@@]2(CO)C(=CC1=O)CC[C@@H]1[C@@H]2CC[C@]2(C)C(=O)CC[C@@H]12 showed an IC50 of 5.11 µM. CCCO[C@H]1C[C@@H]2[C@H](CC[C@]3(C)C(=O)CC[C@@H]23)[C@@]2(C)CCC(=O)C=C12 was tested, and the IC50 was 1.3 µM. With COc1ccc([C@@H]2[C@H]3C[C@H]4[C@@H]5CCC6=CC(=O)C=C[C@]6(C)[C@H]5CC[C@]4(C)C3=NN2C)cc1 the IC50 was 2.11 µM. In the case of C[C@]12C=CC(=O)C=C1CC[C@@H]1[C@@H]2CC[C@]2(C)C3=NN[C@H](c4ccccc4)[C@H]3C[C@@H]12, the IC50 is reported as 3.01 µM. CC(=O)O[C@@H]1C[C@@H]2[C@H](CC[C@]3(C)C(=O)CC[C@@H]23)[C@@]2(C)C=CC(=O)C=C12 gave an IC50 of 5 µM. C/C=C1\CC[C@@]2(C)[C@@H](CC[C@@H]3[C@@H]2CC[C@]2(C)C4=NN(c5ccccc5)[C@H](c5ccccc5)[C@H]4C[C@@H]32)C1 gave an IC50 of 3.34 µM. Work on CC(=O)N1N=C2[C@H](C[C@H]3[C@@H]4CC[C@H]5C[C@@H](OC(=O)C(F)(F)F)CC[C@]5(C)[C@H]4CC[C@]23C)[C@H]1c1ccccc1 yielded an IC50 of 6.58 µM. For CCC(=O)O[C@@H]1C[C@@H]2[C@H](CC[C@]3(C)C(=O)CC[C@@H]23)[C@@]2(C)CCC(=O)C=C12, the IC50 was 2.2 µM. Work on C/C=C1\CC[C@@]2(C)[C@@H](CC[C@@H]3[C@@H]2CC[C@]2(C)C4=NN(c5ccccc5)[C@H](c5ccc(OC)cc5)[C@H]4C[C@@H]32)C1 yielded an IC50 of 3.23 µM. CCCCO[C@@H]1C[C@@H]2[C@H](CC[C@]3(C)C(=O)CC[C@@H]23)[C@@]2(C)C=CC(=O)C=C12 showed an IC50 of 0.46 µM.

Target: T1, Aromatase
Remark: another data set of the same source
Work on CCCC1=C[C@@H]2[C@H](CC[C@]3(C)C(=O)CC[C@@H]23)[C@@]2(C)CCC(=O)C=C12 yielded an IC50 of 0.315 µM. CC[C@]12C=CC(=O)C=C1CC[C@H]1[C@@H]3CCC(=O)[C@@]3(C)CC[C@@H]12 was tested, and the IC50 was 0.16 µM. C[C@]12CCC(=O)C=C1[C@H](CCc1ccccc1)C[C@@H]1[C@@H]2CC[C@]2(C)C(=O)CC[C@@H]12 showed an IC50 of 1050 µM. For CCCCCCCC1=C[C@@H]2[C@H](CC[C@]3(C)C(=O)CC[C@@H]23)[C@@]2(C)C=CC(=O)C=C12, the IC50 was 0.23 µM. C[C@]12CCC(=O)C=C1C(CCCc1ccccc1)=C[C@@H]1[C@@H]2CC[C@]2(C)C(=O)CC[C@@H]12 was tested, and the IC50 was 0.25 µM. CC[C@@H]1C[C@@H]2[C@H](CC[C@]3(C)C(=O)CC[C@@H]23)[C@@]2(C)CCCC=C12 was tested, and the IC50 was 0.32 µM. Compound C[C@]12C=CC(=O)C=C1C(Cc1ccccc1)=C[C@@H]1[C@@H]2CC[C@]2(C)C(=O)CC[C@@H]12 has an IC50 of 0.0929 µM. With C[C@]12C[C@@H](CCc3ccc(C(F)(F)F)cc3)C(=O)C=C1CC[C@@H]1[C@@H]2CC[C@]2(C)C(=O)CC[C@@H]12 the IC50 was 46.6 µM. Compound C[C@]12CCC(=O)C=C1[C@@H](O)C[C@@H]1[C@@H]2CC[C@]2(C)C(=O)CC[C@@H]12 has an IC50 of 15 µM. CO[C@@H]1C[C@@H]2[C@H](CC[C@]3(C)C(=O)CC[C@@H]23)c2ccc(O)cc21 was tested, and the IC50 was 49 µM. For CCCCC1=C[C@@]2(C)C(=CC1=O)CC[C@@H]1[C@@H]2CC[C@]2(C)C(=O)CC[C@@H]12, the IC50 was 1.84 µM. Work on C[C@]12CC[C@H]3[C@@H](C(=O)C=C4C(=O)CCC[C@@]43CO)[C@@H]1CCC2=O yielded an IC50 of 48 µM. CCCCCCCC1=C[C@@H]2[C@H](CC[C@]3(C)C(=O)CC[C@@H]23)[C@@]2(C)CCC(=O)C=C12 showed an IC50 of 0.43 µM. CCCCC[C@H]1C[C@@H]2[C@H](CC[C@]3(C)C(=O)CC[C@@H]23)[C@@]2(C)C=CC(=O)C=C12 was tested, and the IC50 was 0.14 µM. C[C@]12CC[C@@H]3c4cc([N+](=O)[O-])c(O)cc4CC[C@H]3[C@@H]1CCC2=O was tested, and the IC50 was 15 µM. C[C@]12CC[C@H]3[C@@H](CCC4=CC(=O)CC[C@@]43C)[C@@H]1CC[C@@H]2OC(=O)CBr showed an IC50 of 50 µM.
